Reference: patent US20260356834A1, “ANTICONVULSIVE COMPOUNDS AND USES THEREOF” (Jazz Pharmaceuticals Research UK Limite, priority 2023, published 2026)
“And” between values parts separate entries of the source, which are not always exact repeats. Equal entries are not always repeated. Marks after values point to notes of the source that are not given here.

Legend:
RjOrl: Swiss mice = test: mouse 6 Hz (44 mA) model of partial seizures; type: in vivo; conditions: for Mean Forelimb Clonus +/− SEM: score 0-2; for Change from vehicle 2 (forelimb clonus): vs vehicle 2 (1:2:17)
Description: The 6 Hz (44 mA) model of partial seizures, which detects anticonvulsant activity, follows that described by Brown et al. 1953.
[…] A decrease in forelimb clonus score is indicative of protection from seizure and an anticonvulsive effect.
When conducted at a 44 mA stimulus intensity in mice, the 6 Hz test can differentiate compounds with potential for the treatment of focal-onset seizures that are often resistant to current anti-epileptic drugs.
Male RjOrl: Swiss mice (Janvier Labs, 53940 Le Genest-Saint-Isle, France), 5 weeks old, weighing 27-38 g at the beginning of the experiment. Animals were acclimatized to the Test Facility for at least 5 days after delivery and randomly housed in groups of 5 to 8 in macrolon cages on wood litter with free access to food and water.
(§1) The animal house was maintained under artificial lighting (12 hours) between 7:00 and 19:00 in a controlled ambient temperature of 22±2 °C and relative humidity between 30-70%.
Before transcorneal stimulation, a drop of tetracaine solution (1%) was applied on each eye of the mouse for local anesthesia. Between 1-10 minutes later and at the designated pre-treatment (see below), the mice were administered a rectangular current (44 mA, rectangular pulse: 0.2 ms pulse width, 3 s duration, (6 Hz) via corneal electrodes connected to a constant current shock generator (Ugo Basile: type 7801).
The results for the number of seizures as reflected by forelimb clonus were recorded immediately after current administration. Forelimb clonus was scored as absent (0=no forelimb clonus), mild (1=clonus with one forelimb) and strong (2=clonus with both forelimbs). The experimenters were blinded to the treatment. […]
The administration volume was 10 mL/kg.
Due to the number of animals tested, the experiment was divided in 2 sub-experiments on 2 consecutive days with equivalent numbers of mice per group and per sub-experiment.
Data were discrete values so considered to be non-normally distributed based on validation data, therefore non-parametric tests were utilized. Quantitative data (scores) with the test substance were analyzed by comparing test compound-treated groups with the 1:2:17 vehicle control using Kruskal-Wallis test with Dunn's multiple comparisons test when the Kruskal-Wallis test was significant. Quantitative data with the reference substance were analyzed using Mann-Whitney U test as compared to saline vehicle.

DBA/2 mice = test: mouse audiogenic seizure test; type: in vivo; conditions: for Clonic convulsion - presence, Total / Tonic convulsion - presence, Total / Wild running - presence, Total: number of mice, n = 10
Description: The Audiogenic Seizure Test, which detects anticonvulsant activity, follows that described by Durmüller et al., 1993. Mice of the DBA/2 strain undergo an age-dependent sequence of convulsions (wild-running, clonic convulsion, tonic convulsion and respiratory arrest) within 60 seconds of exposure to a loud sound of 110-120 dB. The type of convulsions are consistent with aspects of generalised seizure in humans.
Male DBA/2 mice (3-4 weeks old) were supplied by Janvier Labs (53940 Le Genest-Saint-Isle, France); weight range 6-13 g at the beginning of the experiment. Animals were acclimatized to the Test Facility for 1 day after delivery and randomly housed in groups of 5 in macrolon cages on wood litter with free access to food and water.
as §1
Mice were individually transferred (at 3-5 minutes intervals) from the preparation room into an adjacent experimental room and body temperature was measured using a rectal thermometer (Digital Laboratory Thermometer: Model BAT-12). Immediately after, they were placed in a Plexiglas jar (Diameter=40 cm; Height=35 cm) mounted with an electric bell (110-120 dB, supplier Leroy Merlin, France). Upon activating the bell, the occurrences and latencies to wild running fits, clonic and tonic seizures were measured. Deaths were also recorded. The bell was activated until a tonic seizure occurred, or for a maximum of 60 seconds.
The experiment included groups of 10 mice per group. Experimenters were only partially blinded to treatment group as pre-treatment times were different.
The test substance was evaluated at various doses, administered i.p. (10 ml/kg) 15 or 30 minutes before the test, and compared with a vehicle control group.
Due to the number of animals tested, the experiment was divided in 2 sub-experiments on 2 separate days (7 days apart) with 5 mice per group in each sub-experiment.
Data were tested for normality using d'Agostino-Pearson Test and found to not follow a normal distribution. Statistical outliers were not identified or removed because no behavioural outliers were identified. Quantitative data (latencies) with the test substance were analyzed by comparing treated groups with vehicle control using Kruskal-Wallis test followed by Dunn's multiple comparisons test. Quantitative data with the reference substance were analyzed using Mann-Whitney U test. Quantal data (frequencies) were analyzed by comparing treated groups with vehicle control using Fisher's Exact Probability test.

C57BL/6J mice = test: mouse maximal electroshock seizure threshold model using minimal sample sizes (mini-MEST)
Description: An increase in seizure threshold is indicative of an anticonvulsive effect.
The ability of a test compound to alter the stimulus intensity, expressed as current (mA), required to induce the presence of tonic hind limb extensor convulsions, is assessed in the MEST.
In the mini-MEST test, a lower n number is used.
Male C57BL/6J mice were housed in groups of 6. Mice were kept under standard conditions (12 hour light cycle; light intensity of 25-75 lux) and fed a diet of certified rodent CR 14% protein rodent diet (LabDiet® 4CR4). Mice were 8-9 weeks old at the start of the study.
Naïve mice were acclimatised to the procedure room in their home cages for up to 7 days, with food and water available ad libitum.
All animals were weighed at the beginning of the study and randomly assigned to treatment groups based on a mean distribution of body weight across groups.
The first animal within a treatment group was given a shock at the expected or estimated CC50 current. For subsequent animals, the current was lowered or raised depending on the convulsions outcome from the preceding animal in log scale intervals.
Data generated from each treatment group were used to calculate the CC50±SEM values for the treatment group.
Vehicle: (5% ethanol, 10% Solutol® (Kolliphor® HS 15), 85% saline). 1 mL of ethanol, 2 mL of Solutol™ were warmed to 60 °C, in 17 mL of 0.9% saline.
Test compounds: 5-50 mg/kg in a 1:2:17 ethanol:Solutol®:saline formulation (as used for vehicle).

[1] = 10 mg/kg i.p., 15 min post dose
[2] = 10 mg/kg i.p., 30 min post dose
[3] = 10 mg/kg i.p., 60 min post dose
[4] = 30 mg/kg i.p., 30 min post dose

## CCCc1cc(O)c(-c2c(C)ccn3ccnc23)c(O)c1 [Compound 2, 2-(7-Methylimidazo[1,2-a]pyridin-8-yl)-5-propylbenzene-1,3-diol]
RjOrl: Swiss mice; 10 mg/kg i.p., 30 min
  Mean Forelimb Clonus +/− SEM: 0.7 ± 0.1
  Change from vehicle 2 (forelimb clonus): −22%
RjOrl: Swiss mice; 30 mg/kg i.p., 15 min
  Mean Forelimb Clonus +/− SEM: 0.7 ± 0.1
  Change from vehicle 2 (forelimb clonus): −22%
RjOrl: Swiss mice; 60 mg/kg i.p., 30 min
  Mean Forelimb Clonus +/− SEM: 0.7 ± 0.1
  Change from vehicle 2 (forelimb clonus): −22%
RjOrl: Swiss mice; 100 mg/kg i.p.
  sedation: slight sedation observed
RjOrl: Swiss mice; 100 mg/kg i.p., 30 min
  Mean Forelimb Clonus +/− SEM: 0.3 ± 0.1
  Change from vehicle 2 (forelimb clonus): −67%
RjOrl: Swiss mice; 10, 30 or 60 mg/kg i.p.
  adverse signs: no adverse signs were noted
DBA/2 mice; 3 mg/kg i.p. vs vehicle
  latency to tonic convulsions (significance in words): no significant differences
DBA/2 mice; 3 mg/kg i.p., 30 min
  Clonic convulsion - latency, Change from vehicle: +10%
  Clonic convulsion - presence, Change from vehicle: +25%
  Tonic convulsion - latency, Change from vehicle: +23%
  Tonic convulsion - presence, Change from vehicle: +14%
  Wild running - latency, Change from vehicle: +16%
  Wild running - presence, Change from vehicle: +11%
  Clonic convulsion - presence, Total: 10
  Tonic convulsion - presence, Total: 8
  Wild running - presence, Total: 10
DBA/2 mice; 10 mg/kg i.p. vs vehicle
  latency to tonic convulsions (significance in words): significantly increased
DBA/2 mice; 10 mg/kg i.p., 30 min
  Clonic convulsion - latency, Change from vehicle: +44%
  Clonic convulsion - presence, Change from vehicle: −13%
  Tonic convulsion - latency, Change from vehicle: +400%*
  Tonic convulsion - presence, Change from vehicle: −57%
  Wild running - latency, Change from vehicle: +27%
  Wild running - presence, Change from vehicle: −11%
  Clonic convulsion - presence, Total: 7
  Tonic convulsion - presence, Total: 3
  Wild running - presence, Total: 8
DBA/2 mice; 30 mg/kg i.p. vs vehicle
  latency to clonic convulsions (significance in words): significantly increased
  latency to tonic convulsions (significance in words): significantly increased
  latency to wild running (significance in words): significantly increased
DBA/2 mice; 30 mg/kg i.p., 15 min
  Clonic convulsion - latency, Change from vehicle: +574%**
  Tonic convulsion - latency, Change from vehicle: +400%**
  Wild running - latency, Change from vehicle: +1076%***
  Clonic convulsion - presence, Total: 2
  Tonic convulsion - presence, Total: 0
  Wild running - presence, Total: 2
DBA/2 mice; 3 and 10 mg/kg i.p. vs vehicle
  latency to clonic convulsions (significance in words): no significant differences
  latency to wild running (significance in words): no significant differences
DBA/2 mice; 3 or 10 mg/kg i.p.
  number of mice displaying clonic convulsions (significance in words): no significant differences
  number of mice displaying tonic convulsions (significance in words): no significant differences
  number of mice displaying wild running (significance in words): no significant differences
C57BL/6J mice; [1]
  CC50 +/− SEM: 67.5 ± 2.6 mA and 65.8 ± 1.9 mA
  Change from vehicle (CC50): 150% and 145%
C57BL/6J mice; [2]
  CC50 +/− SEM: 35.3 ± 1.1 mA
  Change from vehicle (CC50): 32%
C57BL/6J mice; [3]
  CC50 +/− SEM: 56.0 ± 1.6 mA
  Change from vehicle (CC50): 109%
C57BL/6J mice; [4]
  CC50 +/− SEM: >131.0 mA
  Change from vehicle (CC50): 414%
